Reference: US10640487B2, “Solid state forms of Nilotinib salts” (Teva Pharmaceuticals USA, Inc., priority 2016, dated 2020)

Experiments:
[1] = Long term and accelerated storage stability of the solid state form; type: physicochemical
[2] = Thermodynamic stability (resistance to polymorphic conversion) compared with forms I and II of WO'222; type: physicochemical; conditions: compared to forms I and II of Nilotinib fumarate described in WO'222
Excerpt: As used herein, and unless indicated otherwise, the term “thermo-dynamical stability” in relation to solid state forms of the present disclosure refers to resistance of the solid state form to polymorphic conversion under certain conditions, for example, heating, melting or dissolving. […] In some embodiments, the conversion is about 1% (w/w) to about 20% (w/w), about 1% (w/w) to about 10% (w/w) or about 1% (w/w) to about 5% (w/w).

For “Nilotinib fumarate [Form III of Nilotinib fumarate]”, the “chemical and polymorphic stability” value ([1]; accelerated stability conditions at 25° C./60% RH with desiccant) was “chemically and polymorphically stable”, the “chemical and polymorphic stability” value ([1]; long term stability conditions at 5° C.) was “chemically and polymorphically stable” and the thermodynamic stability [2] was “thermodynamically more stable”.
